Measured values reported in ChEMBL document CHEMBL1201862, “PubChem BioAssay data set” (2004).
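A five-concentration, 48-hour dose response in 96-well plates underlies each endpoint, interpolated linearly between surrounding concentrations. The concentration for 50% growth inhibition is given as GI50.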 Activity calls are given as the source filed them. Rule as the data show it: active = GI50 up to about 1.1 µM and inactive = higher.

Tests used:
Assay in all cases: growth of human tumour cells (NCI), 48 h
[1] = tested on: IGROV-1
[2] = tested on: SK-MEL-28
[3] = tested on: 786-0
[4] = tested on: UACC-62
[5] = tested on: Malme-3M
[6] = tested on: SW-620
[7] = tested on: ACHN
[8] = tested on: SNB-19
[9] = tested on: A549
[10] = tested on: CCRF-CEM
[11] = tested on: SN12C
[12] = tested on: NCI-H226
[13] = tested on: SK-MEL-2
[14] = tested on: M14
[15] = tested on: SK-MEL-5
[16] = tested on: MDA-MB-435
[17] = tested on: A498
[18] = tested on: DU-145

Measured: GI50

Cc1ccccc1NC(=O)C1C(=O)N(c2ccccc2C)C(=O)/C1=N\NC(N)=S (stereo not drawn)
inactive: [1] > 100 µM | [2] > 100 µM | [3] > 100 µM | [4] > 100 µM | [5] > 100 µM | [6] > 100 µM | [7] > 100 µM | [8] > 100 µM | [9] > 100 µM | [10] > 100 µM | [11] > 100 µM | [12] > 100 µM | [13] > 100 µM | [14] > 100 µM

N#Cc1ccc(C2NN=CC23C(=O)c2ccccc2OC3c2ccccc2)cc1 (stereo not drawn)
inactive: [15] 23.7 µM | [1] 50.6 µM | [2] 51.1 µM | [16] 30.8 µM | [17] 26.9 µM | [3] 32.1 µM | [4] 26.7 µM | [5] 53.7 µM | [6] 45.2 µM | [7] 34.7 µM | [8] 27.6 µM | [9] 29.4 µM | [10] 32.6 µM | [11] 41.1 µM | [12] 39.4 µM | [13] 29.5 µM | [14] 97.1 µM | [18] 47.1 µM

COCCNC1CCC2(SCCS2)c2[nH]c3ccccc3c21 (stereo not drawn)
inactive: [15] 25.1 µM | [1] > 100 µM | [2] 26.3 µM | [16] 22.4 µM | [17] 25.5 µM | [3] 31.8 µM | [5] > 10 µM | [6] 68.7 µM | [7] 61.9 µM | [8] > 100 µM | [9] > 100 µM | [10] 35.2 µM | [11] 28.4 µM | [12] 40.3 µM | [13] 44.8 µM | [14] 16 µM | [18] 39.3 µM

COc1ccc(C(=O)NCCC2CN(S(=O)(=O)C(F)(F)F)c3ccccc32)c(OC)c1 (stereo not drawn)
inactive: [15] 15.2 µM | [1] 61.4 µM | [2] 51.2 µM | [16] 30.1 µM | [17] > 100 µM | [3] 53 µM | [4] 26.9 µM | [5] 7.06 µM | [6] 35.8 µM | [7] 33.2 µM | [8] 54.5 µM | [9] 52.1 µM | [10] 17.2 µM | [13] 53.6 µM | [14] 35.1 µM | [18] > 100 µM

O=C(Cc1nc2ccc(C(=O)c3ccccc3)cc2nc1O)C(=O)Nc1ccc(C(F)(F)F)cc1[N+](=O)[O-]
inactive: [15] 39.7 µM | [1] > 100 µM | [2] 82.6 µM | [17] 90.4 µM | [3] > 100 µM | [4] 38.9 µM | [5] > 100 µM | [6] 47.4 µM | [7] > 100 µM | [8] 94.8 µM | [9] > 100 µM | [10] 27.3 µM | [11] > 100 µM | [12] 87.1 µM | [13] > 100 µM | [14] > 100 µM

COc1ccc(Nc2cc(O)nc(O)n2)cc1
inactive: [15] > 100 µM | [1] > 100 µM | [2] > 100 µM | [16] > 100 µM | [17] > 100 µM | [3] > 100 µM | [5] > 100 µM | [6] > 100 µM | [7] > 100 µM | [8] > 100 µM | [9] > 100 µM | [10] > 100 µM | [11] > 100 µM | [12] > 100 µM | [14] > 100 µM | [18] > 100 µM

CCOC(=O)Cc1nc2cc(F)c(F)cc2[nH]c1=O
inactive: [15] > 100 µM | [2] > 100 µM | [16] > 100 µM | [3] > 100 µM | [4] > 100 µM | [5] > 100 µM | [6] > 100 µM | [7] > 100 µM | [8] > 100 µM | [9] > 100 µM | [10] > 100 µM | [11] > 100 µM | [12] > 100 µM | [13] > 100 µM | [14] > 100 µM | [18] > 100 µM
